{"source": "patent US20060216346A1", "about": "“Dosage form containing (s)-pantoprazole as active ingredient” (priority 2003, published 2006)", "key": {"[1]": {"test": "Stability of the salt at 70° C. for one week", "format": "physicochemical", "settings": "for discolouration and decomposition: identical conditions", "description": "Pantoprazole is the INN (International Nonproprietary Name) for the compound 5-difluoromethoxy-2-[(3,4-dimethoxy-2-pyridinyl)methylsulfinyl]-1H-benzimidazole. The magnesium salt of pantoprazole is the chemical compound magnesium bis[5-[difluoromethoxy]-2-[[3,4-dimethoxy-2-pyridinyl]methyl]sulfinyl]-1H-benzimidazolide]. The magnesium salt of (S)-pantoprazole [hereinafter also referred to as (−)-pantoprazole] and its hydrates in connection with the invention refers to the compound magnesium (−)-bis{[5-(difluoromethoxy)]-2-[(3,4-dimethoxy-2-pyridinyl)methylsulphinyl]-1H-benzimidazolide} including hydrates thereof. Here, particular emphasis is given to hydrates, which, after drying under reduced pressure at 50° C., have a water content of from 4.0 to 6.7% (by weight), in particular from 4.0 to 5.5%. Particular preference is given to the hydrate form which has a water content of from 4.0 to 5.0%, in particular from 4.2 to 4.4%, which corresponds to a dihydrate. The magnesium salt and its hydrates have highly surprising stability properties, making it a particularly suitable candidate for use in solid or oral dosage forms.\n(§1) This absorption of water is reversible, so that it is difficult to adjust an exact water content."}, "[2]": {"test": "Hygroscopicity / absorption of water", "format": "physicochemical", "protocol": "as §1\nDrying is carried out in a vacuum drying cabinet at <50 mbar and 40-45° C. [It is also possible to dispense with drying and to use the moist product (having an MIBK content of 10-20%) directly for step B]. The white-beige crystalline product obtained after drying is hygroscopic. The water content is from 2 to 12%. The absorption and release of water are reversible. Yield: 34 g=90% of theory (based on anhydrous product). Specific rotation: aD^20+=−95 (c=0.5, measured in methanol, sodium salt having a water content of 12%). m.p.: 145-165° C. (decomposition, sodium salt having a water content of 2%); 102-109° C. (decomposition, sodium salt having a water content of 12%)."}, "Wettability": {"test": "Wettability", "format": "physicochemical", "settings": "compared to the racemic pantoprazole magnesium dihydrate", "description": "as §1"}, "Dissolution rate": {"test": "Dissolution rate", "format": "physicochemical", "settings": "compared to the racemic pantoprazole magnesium dihydrate", "description": "as §1"}, "Solubility at pH 7.4": {"test": "Solubility at pH 7.4", "format": "physicochemical", "settings": "at pH 7.4, compared to the racemic pantoprazole magnesium dihydrate", "description": "as §1"}, "[3]": {"settings": "in comparison to pantoprazole itself or to pantoprazole sodium sesquihydrate; WO00/10995; cited from earlier work"}}, "note": "Where two headings read alike, the source gives them in different places."}
{"smiles": "COc1ccnc(C[S+]([O-])c2nc3cc(OC(F)F)ccc3[n-]2)c1OC.COc1ccnc(C[S+]([O-])c2nc3cc(OC(F)F)ccc3[n-]2)c1OC.O.O.[Mg+2]", "note": "(single isomer, unassigned; (-)) [(−)-pantoprazole magnesium dihydrate, Magnesium (−)-bis{[5-(difluoromethoxy)]-2-[(3,4-dimethoxy-2-pyridinyl)methylsulphinyl]-1H-benzimidazolide}dihydrate]", "values": [{"measurement": "stability", "setting": "[1]; at 70° C., one week", "result": "completely stable"}, {"measurement": "discolouration and decomposition", "setting": "[1]; at 70° C., one week", "result": "virtually no discolouration or decomposition"}, {"measurement": "stability properties", "setting": "[1]; compared to the sodium salt of (−)-pantoprazole", "result": "considerably improved stability properties"}, {"measurement": "hygroscopicity", "setting": "[2]", "result": "non-hygroscopic"}, {"measurement": "wettability", "setting": "Wettability", "result": "better"}, {"measurement": "dissolution rate", "setting": "Dissolution rate", "result": "considerably higher"}, {"measurement": "solubility", "setting": "Solubility at pH 7.4", "result": "better"}]}
{"smiles": "COc1ccnc(C[S+]([O-])c2nc3cc(OC(F)F)ccc3[n-]2)c1OC.[Na+]", "note": "(single isomer, unassigned; (-)) [(−)-pantoprazole sodium]", "values": [{"measurement": "discolouration and decomposition", "setting": "[1]; at 70° C., one week", "result": "changes to brown, with formation of considerable amounts of decomposition products"}, {"measurement": "hygroscopicity", "setting": "[2]", "result": "absorbs water depending on drying conditions and atmospheric humidity"}, {"measurement": "hygroscopicity", "setting": "[2]; listed as (−)-Pantoprazole-Na", "result": "hygroscopic"}]}
{"smiles": "COc1ccnc(C[S+]([O-])c2nc3cc(OC(F)F)ccc3[n-]2)c1OC.COc1ccnc(C[S+]([O-])c2nc3cc(OC(F)F)ccc3[n-]2)c1OC.[Mg+2]", "note": "(centres unmarked) [magnesium bis[5-[difluoromethoxy]-2-[[3,4-dimethoxy-2-pyridinyl]methyl]sulfinyl]-1H-benzimidazolide]]", "values": [{"measurement": "stability properties", "setting": "[3]", "result": "improved stability properties"}]}
